Reference: article PMC7412453, “SAR:s for the Antiparasitic Plant Metabolite Pulchrol. 1. The Benzyl Alcohol Functionality” (Molecules, 2020)
Like-named read-outs stand apart in the source and are kept apart here.

Key:
T. cruzi epimastigotes = assay: Trypanocidal activity against T. cruzi epimastigotes (XTT); format: cell-based, Trypanosoma cruzi; conditions: for IC50: read-out: T. cruzi IC50; for selectivity ratio at 72 h: mouse (RAW 264.7 cells) / Trypanosoma cruzi (epimastigotes), read-out: T. cruzi SI (selectivity index, cytotoxicity/anti-protozoal activity)
Protocol: Trypanocidal activity was determined according to Muelas-Serrano with some modifications. […] Benznidazol (3.1–100 μg/mL) was used as the control drug. Assays were performed in triplicates.

[1] = tested on: L. brasiliensis promastigotes; assay: Leishmanicidal activity against L. brasiliensis promastigotes (XTT); conditions: for IC50: read-out: L. brasiliensis IC50
Protocol: (§1) Evaluations against Leishmania parasites: Promastigotes of Leishmania-Leishmania: L. amazonensis, Clone 1, NHOM-BR-76-LTB-012 (Lma, donated by the Paul Sabatier Université, France) and Leishmania-Viannia: L. braziliensis M2904 C192 RJA (M2904, donated by Dr. Jorge Arévalo from Universidad Peruana Cayetano Heredia, Peru). All strains were cultured in Schneider’s insect medium, (pH 6.2) supplemented with 10% FBS and incubated at 26 °C. Medium changes were made every 72 h to maintain a viable parasitic population. Leishmanicidal activity was determined according to Williams with some modifications. Samples were dissolved in DMSO (maximum final concentration 1%) at 10 mg/mL. Promastigotes in logarithmic phase of growth, at the concentration 3 × 10^6 parasites/mL, were distributed (100 μL/well) in 96-well flat bottom microtiter plates. Samples with different concentrations (3.1–100 μg/mL) were added (100 μL). […] Assays were performed in triplicates. The microwell plates were incubated for 72 h at 26 °C. After incubation, a solution of XTT (1 mg/mL) in PBS (pH 7.0 at 37 °C) with PMS (0.06 mg/mL) was added (50 μL/well), and incubated for 3 h at 26 °C. The optical density of each well was measured and the IC50 values calculated.

[2] = tested on: L. amazoniensis promastigotes; assay: Leishmanicidal activity against L. amazoniensis promastigotes (XTT); conditions: for IC50: read-out: L. amazoniensis IC50
Protocol: as §1, with “All” for “Evaluations against Leishmania parasites: Promastigotes of Leishmania-Leishmania: L. amazonensis, Clone 1, NHOM-BR-76-LTB-012 (Lma, donated by the Paul Sabatier Université, France) and Leishmania-Viannia: L. braziliensis M2904 C192 RJA (M2904, donated by Dr. Jorge Arévalo from Universidad Peruana Cayetano Heredia, Peru). All”

[3] = tested on: Raw 264.7 murine macrophage cell line; assay: Cytotoxicity in RAW cells (Resazurin); format: cell-based; conditions: RAW cells, 72 h at 37 °C, Resazurin, triplicate
Protocol: (§2) Evaluations against RAW cells: The Raw 264.7 murine macrophage cell line was purchased from the American Type Culture Collection (ATCC-TIB71). The cells were maintained in DMEM-HG medium supplemented with 10% fetal bovine serum, 100 U/mL of penicillin and 100 μg/mL of streptomycin, and sodium bicarbonate (2.2 g/L) in humidified atmosphere at 37 °C with 5% CO2. Samples were prepared as described above and added (in 100 μL DMSO) at different concentrations (6.2–200 μg/mL). Medium blank, control drugs and cell growth controls were included to evaluate cell viability. The plates were incubated for 72 h at 37 °C with 5% CO2. After incubation for the indicated time, the cells were washed, after which 10 μL of Resazurin reagent (2.0 mM) was added. They were further incubated at 37 °C for 3 h in a humidified incubator. The IC50 values were assessed using a fluorometric reader (540 nm excitation, 590 nm emission) and the Gen5 software. All assays were performed in triplicate.

[4] = Cytotoxicity in RAW cells (Resazurin); format: cell-based, murine; conditions: mouse
Protocol: as §2

[5] = tested on: promastigotes of L. mexicana; design: method as in doi:10.1016/j.phytol.2009.10.002; conditions: not part of this investigation; cited from earlier work
[6] = promastigotes, 72 h at 26 °C, XTT, triplicates
[7] = Trypanosoma cruzi, epimastigotes, 72 h at 26 °C, XTT, triplicates
[8] = L. brasiliensis SI (selectivity index, cytotoxicity/anti-protozoal activity), RAW cell IC50 / L. brasiliensis IC50
[9] = L. amazoniensis SI (selectivity index, cytotoxicity/anti-protozoal activity), RAW cell IC50 / L. amazoniensis IC50

Row | Compound | T. cruzi SI (selectivity index, cytotoxicity/anti-protozoal activity) (T. cruzi epimastigotes; RAW cell IC50 / T. cruzi IC50) | IC50 (T. cruzi epimastigotes; epimastigotes, 72 h at 26 °C, XTT, triplicates) | L. brasiliensis SI (selectivity index, cytotoxicity/anti-protozoal activity) ([1]; RAW cell IC50 / L. brasiliensis IC50) | IC50 [1, 6] | L. amazoniensis SI (selectivity index, cytotoxicity/anti-protozoal activity) ([2]; RAW cell IC50 / L. amazoniensis IC50) | IC50 [2, 6] | IC50 [3] | IC50 (T. cruzi epimastigotes; [7]) | selectivity ratio at 72 h (T. cruzi epimastigotes; RAW cell IC50 / T. cruzi IC50) | IC50 ([1]; 72 h) | selectivity ratio at 72 h [1, 8] | selectivity ratio at 72 h [2, 9] | IC50 ([2]; Leishmania amazonensis, 72 h) | IC50 at 72 h [4] | IC50 (T. cruzi epimastigotes; Trypanosoma cruzi, 72 h) | selectivity ratio at 72 h [1] | selectivity ratio at 72 h [2] | IC50 at 72 h ([4]; RAW cells, 72 h at 37 °C, Resazurin, triplicate, read-out: Cytotoxicity IC50) | IC50 [5]
1 | 2-Methoxy-6,6-dimethyl-9-(((4-methoxypentyl)oxy)methyl)-6H-benzo[c]chromene [3e] | 3.5 | 9 ± 0.6 µM | 0.3 | 127 ± 11.3 µM | 1.1 | 28.2 ± 8.5 µM | 31.6 ± 5.6 µM | – | – | – | – | – | – | – | – | – | – | – | –
2 | COc1ccc2c(c1)-c1cc(COC(=O)c3ccco3)ccc1C(C)(C)O2 [4k, (2-Methoxy-6,6-dimethyl-6H-benzo[c]chromen-9-yl)methyl furan-2-carboxylate] | – | – | – | – | – | – | – | 3.8 ± 0.3 µM | 7.9 | 12.8 ± 0.1 µM | 2.4 | 2.4 | 12.8 ± 1.8 µM | 30.5 ± 3.6 µM | – | – | – | – | –
3 | COc1ccc2c(c1)-c1cc(COC(=O)c3ccccc3)ccc1C(C)(C)O2 [4l, (2-Methoxy-6,6-dimethyl-6H-benzo[c]chromen-9-yl)methyl benzoate] | – | – | – | – | – | – | – | 5.9 ± 0.5 µM | 4.7 | 21 ± 4.3 µM | 1.3 | 1.3 | 21.9 ± 7.7 µM | 27.8 ± 10.7 µM | – | – | – | – | –
4 | COc1ccc2c(c1)-c1cc(C=O)ccc1C(C)(C)O2 [5a, 2-Methoxy-6,6-dimethyl-6H-benzo[c]chromene-9-carbaldehyde] | – | – | – | – | – | – | – | 24.2 ± 4.1 µM | 1.6 | 24.2 ± 7.5 µM | 1.6 | 1.3 | 29.8 ± 11.2 µM | 38.8 ± 3.7 µM | – | – | – | – | –
5 | COc1ccc2c(c1)-c1cc(C(C)=O)ccc1C(C)(C)O2 [5b, 1-(2-Methoxy-6,6-dimethyl-6H-benzo[c]chromen-9-yl)ethan-1-one] | – | – | – | – | – | – | – | 21.2 ± 9.2 µM | 1.5 | 28.3 ± 7.1 µM | 1.1 | 0.7 | 43.2 ± 8.2 µM | 31.9 ± 7.1 µM | – | – | – | – | –
6 | COc1ccc2c(c1)-c1cc(C(=O)O)ccc1C(C)(C)O2 [5c, 2-Methoxy-6,6-dimethyl-6H-benzo[c]chromene-9-carboxylic acid] | – | – | – | – | – | – | – | 56.3 µM | 4.4 | 65.1 ± 16.5 µM | 3.8 | 1.2 | 199 µM | 246 ± 24.6 µM | – | – | – | – | –
7 | COC(=O)c1ccc2c(c1)-c1cc(OC)ccc1OC2(C)C [5d, Methyl 2-Methoxy-6,6-dimethyl-6H-benzo[c]chromene-9-carboxylate] | – | – | – | – | – | – | – | 31.8 ± 2.4 µM | 1.2 | 18.4 ± 5.7 µM | 2.1 | 0.7 | 59 ± 1.3 µM | 38.2 ± 2.7 µM | – | – | – | – | –
8 | COc1ccc2c(c1)-c1cc(C(N)=O)ccc1C(C)(C)O2 [5e, 2-Methoxy-6,6-dimethyl-6H-benzo[c]chromene-9-carboxamide] | – | – | – | – | – | – | – | 134 ± 38.8 µM | 0.4 | 145 ± 43.1 µM | 0.3 | 0.4 | 121 ± 21.2 µM | 49.8 ± 17.7 µM | – | – | – | – | –
9 | COc1ccc2c(c1)-c1cc(CO)ccc1C(C)(C)O2 [compound 1, (2-methoxy-6,6-dimethyl-6H-benzo[c]chromen-9-yl)methanol] | – | – | – | – | – | – | – | – | 1.7 | 59.2 ± 11.8 µM | – | – | 77.7 ± 5.6 µM | – | 18.5 ± 9.6 µM | 0.5 | 0.4 | 30.7 ± 1.1 µM | 17 µM
10 | COc1ccc2c(c1)-c1cc(C(=N)NO)ccc1C(C)(C)O2 [compound 6, N-hydroxy-2-methoxy-6,6-dimethyl-6H-benzo[c]chromene-9-carboximidamide] | – | – | – | – | – | – | – | 33.4 ± 14.9 µM | 0.8 | 52 ± 18.6 µM | 0.5 | 0.5 | 52 ± 16.7 µM | 26.4 ± 1.5 µM | – | – | – | – | –
